# Experimental data as given in PMC5218480 (PLoS ONE, 2017).
# Test system: MV-4-11 cells
# Assay: Gene expression microarray analysis (Affymetrix PrimeView) and GSEA
# Type: cell-based, human
# Design: RFU PODN (11730768_x_at) / Fold change /veh PODN (11730768_x_at) / RFU LINC00158 (11744669_a_at) / Fold change /veh LINC00158 (11744669_a_at) / RFU DUSP10 (11751237_a_at) / Fold change /veh DUSP10 (11751237_a_at) / RFU ID3 (11757404_x_at) / Fold change /veh ID3 (11757404_x_at) / RFU PLEKHG5 (11737974_s_at) / Fold change /veh PLEKHG5 (11737974_s_at) / RFU LRRC4B (11730491_at) / Fold change /veh LRRC4B (11730491_at) / RFU GIMAP4 (11747438_a_at) / Fold change /veh GIMAP4 (11747438_a_at) / RFU KRT8 (11758183_x_at) / Fold change /veh KRT8 (11758183_x_at) / RFU CNN1 (11734310_a_at) / Fold change /veh CNN1 (11734310_a_at) / RFU VPS37D (11726825_at) / Fold change /veh VPS37D (11726825_at) / RFU C10orf10 (11716522_x_at) / Fold change /veh C10orf10 (11716522_x_at) / RFU KIR2DL2 /// KIR2DL4 /// KIR2DL5A /// KIR2DL5B /// KIR2DS1 /// KIR2DS2 /// KIR2DS3 /// KIR2DS4 /// KIR3DL3 /// KIR3DL3 /// KIR3DS1 (11738374_at) / Fold change /veh KIR2DL2 /// KIR2DL4 /// KIR2DL5A /// KIR2DL5B /// KIR2DS1 /// KIR2DS2 /// KIR2DS3 /// KIR2DS4 /// KIR3DL3 /// KIR3DL3 /// KIR3DS1 (11738374_at) / RFU C1QL1 (11718748_at) / Fold change /veh C1QL1 (11718748_at) / RFU TMPRSS4 (11747572_a_at) / Fold change /veh TMPRSS4 (11747572_a_at) / RFU HAMP (11756126_x_at) / Fold change /veh HAMP (11756126_x_at) / RFU RNFT2 (11725882_a_at) / Fold change /veh RNFT2 (11725882_a_at) / RFU NR4A2 (11747474_a_at) / Fold change /veh NR4A2 (11747474_a_at) / RFU ABCC12 (11746883_a_at) / Fold change /veh ABCC12 (11746883_a_at) / RFU TMEM136 (11760407_x_at) / Fold change /veh TMEM136 (11760407_x_at) / RFU CLDN22 /// WWC2 (11732394_at) / Fold change /veh CLDN22 /// WWC2 (11732394_at) / RFU HLA-DPB1 (11760878_x_at) / Fold change /veh HLA-DPB1 (11760878_x_at) / RFU SPINT1 (11716480_a_at) / Fold change /veh SPINT1 (11716480_a_at) / RFU GAP43 (11754022_s_at) / Fold change /veh GAP43 (11754022_s_at) / RFU A4GNT (11735810_at) / Fold change /veh A4GNT (11735810_at) / RFU PRB3 (11715151_x_at) / Fold change /veh PRB3 (11715151_x_at) / RFU TUBB4B (11761932_at) / Fold change /veh TUBB4B (11761932_at) / RFU CAPN14 (11732068_a_at) / Fold change /veh CAPN14 (11732068_a_at) / RFU TMCC2 (11721928_a_at) / Fold change /veh TMCC2 (11721928_a_at) / RFU IRGQ (11745062_a_at) / Fold change /veh IRGQ (11745062_a_at) / RFU FAM174B (11720279_a_at) / Fold change /veh FAM174B (11720279_a_at) / RFU TMPRSS4 (11748680_a_at) / Fold change /veh TMPRSS4 (11748680_a_at) / RFU FAM212B (11763350_a_at) / Fold change /veh FAM212B (11763350_a_at) / RFU PLEKHG5 (11743358_a_at) / Fold change /veh PLEKHG5 (11743358_a_at) / RFU ZSCAN30 (11745921_a_at) / Fold change /veh ZSCAN30 (11745921_a_at) / RFU CMKLR1 (11741424_a_at) / Fold change /veh CMKLR1 (11741424_a_at) / RFU LOC101060620 /// MAPK8IP1 (11723275_at) / Fold change /veh LOC101060620 /// MAPK8IP1 (11723275_at) / RFU SPTSSB (11747773_x_at) / Fold change /veh SPTSSB (11747773_x_at) / RFU PRSS12 (11739890_at) / Fold change /veh PRSS12 (11739890_at) / RFU BIN1 (11741810_x_at) / Fold change /veh BIN1 (11741810_x_at) / RFU WNT11 (11732464_a_at) / Fold change /veh WNT11 (11732464_a_at) / RFU C10orf10 (11716521_a_at) / Fold change /veh C10orf10 (11716521_a_at) / RFU C5orf56 (11738089_at) / Fold change /veh C5orf56 (11738089_at) / RFU CYB561 (11721691_x_at) / Fold change /veh CYB561 (11721691_x_at) / RFU ANKRD19P (11752326_a_at) / Fold change /veh ANKRD19P (11752326_a_at) / RFU OR2T12 /// OR2T33 /// OR2T8 (11738714_s_at) / Fold change /veh OR2T12 /// OR2T33 /// OR2T8 (11738714_s_at) / RFU VCAN (11748164_a_at) / Fold change /veh VCAN (11748164_a_at) / RFU JSRP1 (11732532_at) / Fold change /veh JSRP1 (11732532_at) / RFU KRTAP10-11 (11738290_x_at) / Fold change /veh KRTAP10-11 (11738290_x_at) / RFU MYO3A (11730013_a_at) / Fold change /veh MYO3A (11730013_a_at) / RFU EBF3 (11725865_a_at) / Fold change /veh EBF3 (11725865_a_at) / RFU CAMK2N1 (11719241_x_at) / Fold change /veh CAMK2N1 (11719241_x_at) / RFU C5orf56 (11738088_a_at) / Fold change /veh C5orf56 (11738088_a_at) / RFU OLFML3 (11715873_a_at) / Fold change /veh OLFML3 (11715873_a_at) / RFU LOC100653217 /// NTM (11731650_a_at) / Fold change /veh LOC100653217 /// NTM (11731650_a_at) / RFU MAPK11 (11762145_a_at) / Fold change /veh MAPK11 (11762145_a_at) / RFU FIZ1 (11724087_x_at) / Fold change /veh FIZ1 (11724087_x_at) / RFU OASL (11726364_x_at) / Fold change /veh OASL (11726364_x_at) / RFU SOX15 (11748057_x_at) / Fold change /veh SOX15 (11748057_x_at) / RFU CD79A (11719716_a_at) / Fold change /veh CD79A (11719716_a_at) / RFU HIST1H1D (11736915_at) / Fold change /veh HIST1H1D (11736915_at) / RFU CASKIN2 (11723855_a_at) / Fold change /veh CASKIN2 (11723855_a_at) / RFU LOC730098 (11760151_x_at) / Fold change /veh LOC730098 (11760151_x_at) / RFU OR4N2 (11742367_at) / Fold change /veh OR4N2 (11742367_at) / RFU PRRT2 (11749266_a_at) / Fold change /veh PRRT2 (11749266_a_at) / RFU SNX32 (11753110_a_at) / Fold change /veh SNX32 (11753110_a_at) / RFU CDHR5 (11726645_a_at) / Fold change /veh CDHR5 (11726645_a_at) / RFU RCAN1 (11760418_a_at) / Fold change /veh RCAN1 (11760418_a_at) / RFU FAM167A (11723789_a_at) / Fold change /veh FAM167A (11723789_a_at) / RFU FAM26E (11764081_at) / Fold change /veh FAM26E (11764081_at) / RFU ISYNA1 (11749810_s_at) / Fold change /veh ISYNA1 (11749810_s_at) / RFU ACY1 (11761880_at) / Fold change /veh ACY1 (11761880_at) / RFU 11764098_at / Fold change /veh 11764098_at / RFU SAMD14 (11745864_x_at) / Fold change /veh SAMD14 (11745864_x_at) / RFU NPB (11741838_a_at) / Fold change /veh NPB (11741838_a_at) / RFU TMPRSS6 (11731388_a_at) / Fold change /veh TMPRSS6 (11731388_a_at) / RFU KRTAP10-2 (11738614_at) / Fold change /veh KRTAP10-2 (11738614_at) / RFU ARHGAP8 /// PRR5-ARHGAP8 (11727945_x_at) / Fold change /veh ARHGAP8 /// PRR5-ARHGAP8 (11727945_x_at) / RFU KRTAP5-7 /// NADSYN1 (11734609_at) / Fold change /veh KRTAP5-7 /// NADSYN1 (11734609_at) / RFU RASL12 (11751679_a_at) / Fold change /veh RASL12 (11751679_a_at) / RFU CDKN2B (11736163_a_at) / Fold change /veh CDKN2B (11736163_a_at) / RFU PRF1 (11729649_at) / Fold change /veh PRF1 (11729649_at) / RFU, ZNF638 /// ZNF638-IT1 / Fold change vs veh, ZNF638 /// ZNF638-IT1 / RFU, PANK3 / Fold change vs veh, PANK3 / RFU, SH3YL1 / Fold change vs veh, SH3YL1 / RFU, ZEB2 / Fold change vs veh, ZEB2 / RFU, NRIP1 / Fold change vs veh, NRIP1 / RFU, PTTG1IP / Fold change vs veh, PTTG1IP / RFU, CAPN2 / Fold change vs veh, CAPN2 / RFU, MED14 / Fold change vs veh, MED14 / RFU, SNORA58 / Fold change vs veh, SNORA58 / RFU, C1orf63 / Fold change vs veh, C1orf63 / RFU, LRRFIP1 / Fold change vs veh, LRRFIP1 / RFU, NDUFAF7 / Fold change vs veh, NDUFAF7 / RFU, SLC12A2 / Fold change vs veh, SLC12A2 / RFU, IBTK / Fold change vs veh, IBTK / RFU, ESF1 / Fold change vs veh, ESF1 / Fold change vs veh, TMEM50B / RFU, TAOK1 / Fold change vs veh, TAOK1 / RFU, ACBD3 / Fold change vs veh, ACBD3 / RFU, TMA16 / Fold change vs veh, TMA16 / RFU, RWDD3 / Fold change vs veh, RWDD3 / RFU, BCAT1 / Fold change vs veh, BCAT1 / RFU, EDEM3 / Fold change vs veh, EDEM3 / RFU, TMEM33 / Fold change vs veh, TMEM33 / RFU, WDR75 / Fold change vs veh, WDR75 / RFU, AHCTF1 / Fold change vs veh, AHCTF1 / RFU, TFRC / Fold change vs veh, TFRC / RFU, ZDHHC17 / Fold change vs veh, ZDHHC17 / RFU, NOM1 / Fold change vs veh, NOM1 / RFU, ARL8B / Fold change vs veh, ARL8B / RFU, ZBTB11 / Fold change vs veh, ZBTB11 / RFU, TAMM41 / Fold change vs veh, TAMM41 / RFU, KIAA1704 /// LOC100996395 / Fold change vs veh, KIAA1704 /// LOC100996395 / RFU, ING1 / Fold change vs veh, ING1 / RFU, TRMT61B / Fold change vs veh, TRMT61B / RFU, FUBP3 / Fold change vs veh, FUBP3 / RFU, TP53 / Fold change vs veh, TP53 / RFU, TNKS2 / Fold change vs veh, TNKS2 / RFU, ZFP14 / Fold change vs veh, ZFP14 / RFU, ACTR2 / Fold change vs veh, ACTR2 / RFU, PPP3R1 / Fold change vs veh, PPP3R1 / RFU, PIK3R1 / Fold change vs veh, PIK3R1 / RFU, HNRNPA1 / Fold change vs veh, HNRNPA1 / RFU, RNF170 / Fold change vs veh, RNF170 / RFU, ZNF28 / Fold change vs veh, ZNF28 / RFU, RNGTT / Fold change vs veh, RNGTT / RFU, OGT / Fold change vs veh, OGT / RFU, BRD1 / Fold change vs veh, BRD1 / RFU, MARS / Fold change vs veh, MARS / RFU, ZNF655 / Fold change vs veh, ZNF655 / RFU, FAHD1 / Fold change vs veh, FAHD1 / RFU, BDP1 / Fold change vs veh, BDP1 / RFU, LRRCC1 / Fold change vs veh, LRRCC1 / RFU, ARID1A / Fold change vs veh, ARID1A / RFU, ZNF146 / Fold change vs veh, ZNF146 / RFU, ZNF330 / Fold change vs veh, ZNF330 / RFU, GPN3 / Fold change vs veh, GPN3 / RFU, C9orf123 / Fold change vs veh, C9orf123 / RFU, N4BP2L2 / Fold change vs veh, N4BP2L2 / RFU, ARFIP1 / Fold change vs veh, ARFIP1 / RFU, FAM179B / Fold change vs veh, FAM179B / RFU, BCL10 / Fold change vs veh, BCL10 / RFU, UHRF1BP1L / Fold change vs veh, UHRF1BP1L / RFU, BET1 / Fold change vs veh, BET1 / RFU, CNOT2 / Fold change vs veh, CNOT2 / RFU, ZNF268 / Fold change vs veh, ZNF268 / Fold change vs veh, ZNF507 / RFU, DGCR2 / Fold change vs veh, DGCR2 / RFU, WDSUB1 / Fold change vs veh, WDSUB1 / Fold change vs veh, HSP90B1 /// MIR3652 / RFU, ADSS / Fold change vs veh, ADSS / RFU, GK / Fold change vs veh, GK / RFU, ZNF148 / Fold change vs veh, ZNF148 / RFU, TAF9 / Fold change vs veh, TAF9 / RFU, SLC1A5 / Fold change vs veh, SLC1A5 / RFU, SLMO2 / Fold change vs veh, SLMO2 / RFU, ABCC4 / Fold change vs veh, ABCC4 / RFU, LOC101060439 /// RAP1B / Fold change vs veh, LOC101060439 /// RAP1B / RFU, RFX7 / Fold change vs veh, RFX7 / RFU, GTPBP10 / Fold change vs veh, GTPBP10 / RFU, CNEP1R1 / Fold change vs veh, CNEP1R1 / RFU, BIVM-ERCC5 /// ERCC5 / Fold change vs veh, BIVM-ERCC5 /// ERCC5 / RFU, ILF3 / Fold change vs veh, ILF3 / RFU 11762660_at / Fold change /veh 11762660_at / RFU VCAN (11757783_s_at) / Fold change /veh VCAN (11757783_s_at) / RFU DDX43 (11728927_at) / Fold change /veh DDX43 (11728927_at) / RFU KRT8 (11758188_x_at) / Fold change /veh KRT8 (11758188_x_at) / RFU NKD1 (11759106_at) / Fold change /veh NKD1 (11759106_at) / RFU SRD5A1 (11742802_a_at) / Fold change /veh SRD5A1 (11742802_a_at) / RFU TPSAB1 /// TPSB2 (11721975_s_at) / Fold change /veh TPSAB1 /// TPSB2 (11721975_s_at) / RFU GSTM3 (11746129_a_at) / Fold change /veh GSTM3 (11746129_a_at) / RFU IL23R (11737362_x_at) / Fold change /veh IL23R (11737362_x_at) / RFU TMEM51 (11727254_a_at) / Fold change /veh TMEM51 (11727254_a_at) / RFU PIWIL2 (11732686_x_at) / Fold change /veh PIWIL2 (11732686_x_at) / RFU ORM1 (11744905_x_at) / Fold change /veh ORM1 (11744905_x_at) / RFU CCDC152 (11743942_at) / Fold change /veh CCDC152 (11743942_at) / RFU ECM1 (11717891_a_at) / Fold change /veh ECM1 (11717891_a_at) / RFU IL23R (11748794_a_at) / Fold change /veh IL23R (11748794_a_at) / RFU TNFAIP8L3 (11732012_x_at) / Fold change /veh TNFAIP8L3 (11732012_x_at) / RFU MBOAT4 (11741988_at) / Fold change /veh MBOAT4 (11741988_at) / RFU 11764193_at / Fold change /veh 11764193_at / RFU TMEM53 (11763286_at) / Fold change /veh TMEM53 (11763286_at) / RFU MAGEB2 (11727129_at) / Fold change /veh MAGEB2 (11727129_at) / RFU TMEM200A (11744735_a_at) / Fold change /veh TMEM200A (11744735_a_at) / RFU CCDC152 (11751479_a_at) / Fold change /veh CCDC152 (11751479_a_at) / RFU FAM211A (11726209_a_at) / Fold change /veh FAM211A (11726209_a_at) / RFU RGS16 (11746705_a_at) / Fold change /veh RGS16 (11746705_a_at) / RFU VCAN (11755009_s_at) / Fold change /veh VCAN (11755009_s_at) / RFU RHOB (11743442_s_at) / Fold change /veh RHOB (11743442_s_at) / RFU RGS16 (11720943_a_at) / Fold change /veh RGS16 (11720943_a_at) / RFU RGS16 (11720944_at) / Fold change /veh RGS16 (11720944_at) / RFU, VPS4B / Fold change vs veh, VPS4B / RFU, CREB1 / Fold change vs veh, CREB1 / RFU, DNAJC13 / Fold change vs veh, DNAJC13 / RFU, GNAQ / Fold change vs veh, GNAQ / RFU, CDK5R1 / Fold change vs veh, CDK5R1 / RFU, ZRANB3 / Fold change vs veh, ZRANB3 / RFU, CUL4A / Fold change vs veh, CUL4A / RFU, CCNY / Fold change vs veh, CCNY / RFU, UFL1 / Fold change vs veh, UFL1 / RFU, COG3 / Fold change vs veh, COG3 / RFU, DIAPH2 / Fold change vs veh, DIAPH2 / RFU, SKA2 / Fold change vs veh, SKA2 / RFU, AFF3 / Fold change vs veh, AFF3 / RFU, LMF1 / Fold change vs veh, LMF1 / RFU, IPO11 / Fold change vs veh, IPO11 / RFU, DFFB / Fold change vs veh, DFFB / RFU, FOXP1 / Fold change vs veh, FOXP1 / RFU, CARD8 / Fold change vs veh, CARD8 / RFU, STRN3 / Fold change vs veh, STRN3 / RFU, ADK / Fold change vs veh, ADK / RFU, RASSF2 / Fold change vs veh, RASSF2 / RFU, WIPF1 / Fold change vs veh, WIPF1 / RFU, LARP1B / Fold change vs veh, LARP1B / RFU, RASA1 / Fold change vs veh, RASA1 / RFU, RB1 / Fold change vs veh, RB1 / RFU, PPFIA1 / Fold change vs veh, PPFIA1 / RFU, MAT2A / Fold change vs veh, MAT2A / RFU, CCT5 / Fold change vs veh, CCT5 / RFU, WDR92 / Fold change vs veh, WDR92 / RFU, CUX1 / Fold change vs veh, CUX1 / RFU, TTC7A / Fold change vs veh, TTC7A / RFU, TMEM135 / Fold change vs veh, TMEM135 / RFU, DEPTOR / Fold change vs veh, DEPTOR / RFU, CPM / Fold change vs veh, CPM / RFU, DNAJB6 / Fold change vs veh, DNAJB6 / RFU, CACNA2D3 / Fold change vs veh, CACNA2D3 / RFU, DTX4 / Fold change vs veh, DTX4 / RFU, TFCP2 / Fold change vs veh, TFCP2 / RFU, GMCL1 /// GMCL1P1 / Fold change vs veh, GMCL1 /// GMCL1P1 / RFU, AEBP2 / Fold change vs veh, AEBP2 / RFU, SNHG1 /// SNORD22 /// SNORD25 /// SNORD26 /// SNORD27 /// SNORD28 /// SNORD29 /// SNORD31 / Fold change vs veh, SNHG1 /// SNORD22 /// SNORD25 /// SNORD26 /// SNORD27 /// SNORD28 /// SNORD29 /// SNORD31 / Fold change (Aza/veh), C12orf56 (ProbeSet 11735607_a_at) / Fold change (ACY-1035/veh), C12orf56 (ProbeSet 11735607_a_at) / Fold change (Aza/veh), FGFR1OP (ProbeSet 11751329_s_at) / Fold change (ACY-1035/veh), FGFR1OP (ProbeSet 11751329_s_at) / Fold change (Aza/veh), VPS36 (ProbeSet 11739960_a_at) / Fold change (ACY-1035/veh), VPS36 (ProbeSet 11739960_a_at) / RFU SYPL1 (11715823_x_at) / Fold change /veh SYPL1 (11715823_x_at) / RFU IGFBP7 (11715501_s_at) / Fold change /veh IGFBP7 (11715501_s_at) / RFU REEP3 (11722064_at) / Fold change /veh REEP3 (11722064_at) / RFU IGLL1 (11728026_x_at) / Fold change /veh IGLL1 (11728026_x_at): dose or concentration left out as unconfirmed
# Conditions: MV-4-11 cells, 48 hours
structure (smiles),measurement,value
Nc1ccc(-c2cccs2)cc1NC(=O)c1ccc2c(c1)cc(C1CC1)n2CCN1CCOCC1 [ACY-1035],Fold change /veh IL23R (11737362_x_at),1.14
